These results are taken from patent US8975400B2, “2,3-dihydroimidazo[1, 2-c] pyrimidin-5(1 H)-one compounds use as LP-PLA2 inhibitors” (Glaxo Group Limited, priority 2011, dated 2015).

One assay concerns the target T1, Lp-PLA2 in human plasma (Homo sapiens, UniProt Q13093).
T1 construct: This assay may detect the activity of Lp-PLA2 in human plasma; from tissue; host or cells: pooled human plasma
T1 sequence (Q13093 22-441): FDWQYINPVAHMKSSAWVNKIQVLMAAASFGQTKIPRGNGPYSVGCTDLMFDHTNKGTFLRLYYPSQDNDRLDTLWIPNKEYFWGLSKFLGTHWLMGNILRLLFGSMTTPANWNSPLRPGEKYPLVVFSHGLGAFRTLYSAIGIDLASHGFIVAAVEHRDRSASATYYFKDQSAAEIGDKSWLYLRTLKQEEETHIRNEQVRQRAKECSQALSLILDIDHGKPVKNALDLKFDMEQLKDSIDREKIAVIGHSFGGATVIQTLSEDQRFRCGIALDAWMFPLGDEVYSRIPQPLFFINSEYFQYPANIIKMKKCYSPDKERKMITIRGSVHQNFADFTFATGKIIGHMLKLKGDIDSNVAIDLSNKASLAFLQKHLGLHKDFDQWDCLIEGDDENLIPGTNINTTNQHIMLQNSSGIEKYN
Nature of the assay: Lp-PLA2 human plasma assay (Thio-PAF assay). Format: biochemical. The note with it: pooled human plasma, 2-thio-PAF substrate; read-out: pIC50 in the thio-PAF assay (converted). In short, it runs like this:
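Pooled human plasma preincubated 30 min with serially diluted compounds, then 2-thio-PAF substrate with CPM and NEM added in 50 mM HEPES pH 7.4, 150 mM NaCl, 1 mM CHAPS. TFA-quenched after 2 min, 40 min at RT, fluorescence ex 380/em 485; pIC50 from curve fit.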

The target in assay [1] is T2, recombinant human Lp-PLA2 (Homo sapiens, UniProt Q13093).
T2 sequence (Q13093 22-441): T1 sequence (Q13093 22-441)
Nature of the assay: Recombinant human Lp-PLA2 assay (rhLp-PLA2, PED6 assay). The settings on record: recombinant human Lp-PLA2, PED6 substrate; upper limit for pIC50 in this assay is 9.3. Format: biochemical. In short, it runs like this: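 Compound preincubated 30 min with rhLp-PLA2 (4 nM or 110 pM) in 50 mM HEPES pH 7.4, 150 mM NaCl, 1 mM CHAPS, then PED6 substrate (4 μM or 5 μM) added. After 20 min at room temperature protected from light, fluorescence read at ex 480/em 540. pIC50 derived from serial-dilution curves.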

Where a name gives a salt, the structure may show the parent alone.

For `CN1CCn2c1cc(OCc1ccc(Oc3cc(F)c(F)c(F)c3)c(F)c1)nc2=O` [Example E42, 7-((3-fluoro-4-(3,4,5-trifluorophenoxy)benzyl)oxy)-1-methyl-2,3-dihydroimi-dazo[1,2-c]pyrimidin-5(1H)-one], the IC50 at Lp-PLA2 in human plasma was at most 1000 nM; in assay [1], at most 10 nM.

`CN1CCn2c1cc(OCc1ccc(Oc3ccc(F)c(C(F)(F)F)c3)c(C#N)c1)nc2=O` [Example E44, 2-(4-fluoro-3-(trifluoromethyl)phenoxy)-5-(((1-methyl-5-oxo-1,2,3,5-tetrahydroi-midazo[1,2-c]pyrimidin-7-yl)oxy)methyl)benzonitrile, trifluoroacetic acid salt]: the IC50 is at most 100 nM at Lp-PLA2 in human plasma and under 0.501 nM in assay [1].

Turning to `CN1CCn2c1cc(OCc1ccc(Oc3ccc(F)c(C(F)(F)F)c3)c(F)c1)nc2=O` [Example E45, 7-((3-fluoro-4-(4-fluoro-3-(trifluoromethyl)phenoxy)benzyl)oxy)-1-methyl-2,3-dihydroimidazo[1,2-c]pyrimidin-5(1H)-one, trifluoroacetic acid salt], the IC50 on Lp-PLA2 in human plasma was at most 100 nM; in assay [1], at most 1 nM.

Turning to `CN1CCn2c1cc(OCc1ccc(Oc3ccc(C(F)(F)F)nc3)c(C#N)c1)nc2=O` [Example E49, 5-(((1-methyl-5-oxo-1,2,3,5-tetrahydroimidazo[1,2-c]pyrimidin-7-yl)oxy)methyl)-2-((6-(trifluoromethyl)pyridin-3-yl)oxy)benzonitrile], the IC50 at Lp-PLA2 in human plasma is at most 100 nM; in assay [1] it was at most 10 nM.

Consider `CC(C)N1CCn2c1cc(OCc1ccc(Oc3cccc(C(F)(F)F)c3)c(C#N)c1)nc2=O` [Example E51, 5-(((1-isopropyl-5-oxo-1,2,3,5-tetrahydroimidazo[1,2-c]pyrimidin-7-yl)oxy)methy)-2-(3-(trifluoromethyl)phenoxy)benzonitrile, trifluoroacetic acid salt], for which the IC50 on Lp-PLA2 in human plasma was at most 100 nM; in assay [1] it was at most 1 nM.

With `CN1CCn2c1cc(OCc1ccc(Oc3ccc(F)c(C#N)c3)c(C#N)c1)nc2=O` [Example E52, 5-(2-cyano-4-(((1-methyl-5-oxo-1,2,3,5-tetrahydroimidazo[1,2-c]pyrimidin-7-yl)oxy)methyl)phenoxy)-2-fluorobenzonitrile], the IC50 on Lp-PLA2 in human plasma was at most 100 nM; in assay [1], at most 10 nM.

Take `CC(C)N1CCn2c1cc(OCc1ccc(Oc3ccc(F)c(F)c3)c(C#N)c1)nc2=O` [Example E53, 2-(3,4-difluorophenoxy)-5-(((1-isopropyl-5-oxo-1,2,3,5-tetrahydroimidazo[1,2-c]pyrimidin-7-yl)oxy)methyl)benzonitrile]: the IC50 at Lp-PLA2 in human plasma is at most 1000 nM; in assay [1], at most 10 nM.

With `CC(C)N1CCn2c1cc(OCc1ccc(Oc3ccc(Cl)c(C(F)(F)F)c3)cc1)nc2=O` [Example E59, 7-((4-(4-chloro-3-(trifluoromethyl)phenoxy)benzyl)oxy)-1-isopropyl-2,3-dihydroim-idazo[1,2-c]pyrimidin-5(1H)-one], the IC50 at Lp-PLA2 in human plasma is at most 100 nM; in assay [1] it was at most 10 nM.

On to `CN1CCn2c1cc(OCc1ccc(Oc3cccc(C#N)c3)c(C#N)c1)nc2=O` [Example E62, 2-(3-cyanophenoxy)-5-(((l-methyl-5-oxo-1,2,3,5-tetrahydroimidazo[1,2-c]pyrimidin-7-yl)oxy)methyl)benzonitrile, trifluoroacetic acid salt], for which the IC50 was at most 1000 nM at Lp-PLA2 in human plasma and at most 10 nM in assay [1].

Consider `N#Cc1ccc(Oc2ccc(COc3cc4n(c(=O)n3)CCN4)cc2C#N)cc1F` [Example E64, 4-(2-cyano-4-(((5-oxo-1,2,3,5-tetrahydroimidazo[1,2-c]pyrimidin-7-yl)oxy)methyl)p-henoxy)-2-fluorobenzonitrile], for which the IC50 on Lp-PLA2 in human plasma is at most 100 nM; in assay [1] it was at most 10 nM.

For `N#Cc1cc(COc2cc3n(c(=O)n2)CCN3)ccc1Oc1ccc(C(F)(F)F)c(F)c1` [Example E65, 2-(3-fluoro-4-(trifluoromethyl)phenoxy)-5-(((5-oxo-1,2,3,5-tetrahydroimidazo[1,2-c]pyrimidin-7-yl)oxy)methyl)benzonitrile], the results for the IC50 (at Lp-PLA2 in human plasma; in assay [1]) were at most 100 nM and 0.631 nM, respectively.

Turning to `O=c1nc(OCc2ccc(Oc3ccc(F)c(C(F)(F)F)c3)c(F)c2)cc2n1CCN2` [Example E66, 7-((3-fluoro-4-(4-fluoro-3-(trifluoromethyl)phenoxy)benzyl)oxy)-2,3-dihydroimidaz-o[1,2-c]pyrimidin-5(1H)-one], the IC50 on Lp-PLA2 in human plasma is at most 100 nM; in assay [1] it was at most 1 nM.

On to `N#Cc1cc(COc2cc3n(c(=O)n2)CCN3)ccc1Oc1cccc(C(F)(F)F)c1` [Example E67, 5-(((5-oxo-1,2,3,5-tetrahydroimidazo[1,2-c]pyrimidin-7-yl)oxy)methyl)-2-(3-(trifluoromethyl)phenoxy)benzonitrile], for which the IC50 at Lp-PLA2 in human plasma is at most 100 nM; in assay [1] it was at most 1 nM.

As to `CN1CCn2c1cc(OCc1ccc(Oc3ccc(Br)c(F)c3)c(C#N)c1)nc2=O` [Example E70, 2-(4-bromo-3-fluorophenoxy)-5-(((I-methyl-5-oxo-1,2,3,5-tetrahydroimidazo[1,2-c]pyrimidin-7-yl)oxy)methyl)benzonitrile], the IC50 is at most 1000 nM at Lp-PLA2 in human plasma and at most 1 nM in assay [1].

For the compound `N#Cc1cc(COc2cc3n(c(=O)n2)CCN3)ccc1Oc1ccc(F)c(F)c1` [Example E72, 2-(3,4-difluorophenoxy)-5-(((5-oxo-1,2,3,5-tetrahydroimidazo[1,2-c]pyrimidin-7-yl)oxy)methyl)benzonitrile, trifluoroacetic acid salt], the IC50 on Lp-PLA2 in human plasma is at most 1000 nM; in assay [1], at most 1 nM.

`CN1CCn2c1cc(OCc1ccc(Oc3cnc(F)c(F)c3)c(C#N)c1)nc2=O` [Example E73, 2-((5,6-difluoropyridin-3-yl)oxy)-5-(((1-methyl-5-oxo-1,2,3,5-tetrahydroimidazo[1,2-c]pyrimidin-7-yl)oxy)methyl)benzonitrile]: the values for the IC50 (at Lp-PLA2 in human plasma; in assay [1]) were at most 1000 nM and at most 10 nM, respectively.

Take `CN1CCn2c1cc(OCc1cc(F)c(Oc3ccc(F)c(F)c3)c(F)c1)nc2=O` [Example E75, 7-((4-(3,4-difluorophenoxy)-3,5-difluorobenzyl)oxy)-1-methyl-2,3-dihydroimida-zo[1,2-c]pyrimidin-5(1H)-one]: the IC50 was at most 1000 nM at Lp-PLA2 in human plasma and at most 10 nM in assay [1].

In the case of `N#Cc1cc(COc2cc3n(c(=O)n2)CCN3)ccc1Oc1ccc(F)c(Cl)c1` [Example E76, 2-(3-chloro-4-fluorophenoxy)-5-(((5-oxo-1,2,3,5-tetrahydroimidazo[1,2-c]pyrimidin-7-yl)oxy)methyl)benzonitrile, trifluoroacetic acid salt], the values for the IC50 (at Lp-PLA2 in human plasma; in assay [1]) were at most 1000 nM and at most 1 nM, respectively.

For `O=c1nc(OCc2ccc(Oc3cc(F)c(F)c(F)c3)c(F)c2)cc2n1CCN2` [Example E77, 7-((3-fluoro-4-(3,4,5-trifluorophenoxy)benzyl)oxy)-2,3-dihydroimidazo[1,2-c]pyrimidin-5(1H)-one, trifluoroacetic acid salt], the IC50 is at most 1000 nM on Lp-PLA2 in human plasma and at most 1 nM in assay [1].

For `CN1CCn2c1cc(OCc1ccc(Oc3ccc(C#N)c(C(F)(F)F)c3)c(C#N)c1)nc2=O` [Example E78, 4-(2-cyano-4-(((l-methyl-5-oxo-1,2,3,5-tetrahydroimidazo[1,2-c]pyrimidin-7-yl)oxy)methyl)phenoxy)-2-(trifluoromethyl)benzonitrile], the IC50 was at most 100 nM at Lp-PLA2 in human plasma and under 0.501 nM in assay [1].

On to `CN1CCn2c1cc(OCc1ccc(Oc3ccnc(C(F)(F)F)c3)c(C#N)c1)nc2=O` [Example E80, 5-(((1-methyl-5-oxo-1,2,3,5-tetrahydroimidazo[1,2-c]pyrimidin-7-yl)oxy)methyl)-2-((2-(trifluoromethyl)pyridin-4-yl)oxy)benzonitrile], for which the IC50 was at most 100 nM at Lp-PLA2 in human plasma and 1.26 nM in assay [1].

Regarding `CN1CCn2c1cc(OCc1cc(F)c(Oc3ccc(F)c(C(F)(F)F)c3)c(F)c1)nc2=O` [Example E81, 7-((3,5-difluoro-4-(4-fluoro-3-(trifluoromethyl)phenoxy)benzyl)oxy)-1-methyl-2,3-dihydroimidazo[1,2-c]pyrimidin-5(1H)-one], the values for the IC50 (at Lp-PLA2 in human plasma; in assay [1]) were at most 100 nM and at most 1 nM, respectively.

For the compound `CN1CCn2c1cc(OCc1cc(F)c(Oc3cccc(Cl)c3)c(F)c1)nc2=O` [Example E82, 7-((4-(3-chlorophenoxy)-3,5-difluorobenzyl)oxy)1-methyl-2,3-dihydroimidazo[1,2-c]pyrimidin-5(1H)-one], the IC50 on Lp-PLA2 in human plasma was at most 1000 nM; in assay [1] it was at most 1 nM.

Consider `CN1CCn2c1cc(OCc1ccc(Oc3ccc(C#N)c(C(F)(F)F)c3)c(F)c1)nc2=O` [Example E83, 4-(2-fluoro-4-(((1-methyl-5-oxo-1,2,3,5-tetrahydroimidazo[1,2-c]pyrimidin-7-yl)oxy)methyl)phenoxy)-2-(trifluoromethyl)benzonitrile, trifluoroacetic acid salt], for which the IC50 is at most 100 nM at Lp-PLA2 in human plasma and 0.631 nM in assay [1].
